Test results published in article PMC8286840, “Identifying SARS-CoV-2 antiviral compounds by screening for small molecule inhibitors of Nsp3 papain-like protease” (Biochemical Journal, 2021).
Structures can show the parent of a compound that is named as a salt. Where two headings read alike, the source gives them in different places.

Tests used:
[1] = target: T1, SARS-CoV-2 PLpro (nsp3 1564–1878) (Severe acute respiratory syndrome coronavirus 2, UniProt P0DTD1); assay: biochemical; set-up: FRET-quenched peptide (Pro3) cleavage by PLpro, 10 min pre-incubation, slope over 20 min, normalised to no-compound control; settings: high concentration screen, read-out: % of control remaining
[2] = target: T1, SARS-CoV-2 PLpro (nsp3 1564–1878); assay: biochemical; set-up: FRET-quenched peptide (Pro3) cleavage by PLpro, 10 min pre-incubation, slope over 20 min, normalised to no-compound control; settings: low concentration screen, read-out: % of control remaining

Question: What does the source list for CN1CCc2cc(Cl)c(O)cc2[C@@H](c2ccccc2)C1 [R(+)-SCH-23390 hydrochloride]?
Answer: remaining activity at 3.75 µM ([1]; Well no.=638): 98%; remaining activity at 1.25 µM ([2]; Well no.=638): 96.8%

Question: Which results are given for COc1cc2c(c(OC)c1OC)-c1c(cc(OC)c(OC)c1OC)C[C@H](C)[C@H](C)C2 [R(+)-Schisandrin A]?
Answer: remaining activity at 3.75 µM ([1]; Well no.=3741): 93.8%; remaining activity at 1.25 µM ([2]; Well no.=3741): 91.7%

Question: For CCN(CC)C(=O)N[C@@H]1C[C@@H]2c3cccc4[nH]cc(c34)C[C@H]2N(C)C1 [R(+)-Terguride], which remaining activity at 3.75 µM ([1]; Well no.=1330) is on record?
Answer: 104%

Question: What about the remaining activity at 1.25 µM ([2]; Well no.=1330) of the same compound?
Answer: 103%

Question: Which remaining activity at 3.75 µM ([1]; Well no.=1382) does the source give for CCCN(CCC)[C@@H]1CCc2c(F)ccc(O)c2C1 [R(+)-UH-301 hydrochloride] here?
Answer: 98.5%

Question: What about the remaining activity at 1.25 µM ([2]; Well no.=1382) of the same compound?
Answer: 98.7%

Question: Which results are given for CCCN1CCc2cc(O)cc3c2[C@H]1Cc1ccc(O)c(O)c1-3 [R(-)-2,10,11-Trihydroxy-N-propylnoraporphine hydrobromide]?
Answer: remaining activity at 3.75 µM ([1]; Well no.=636): 103%; remaining activity at 1.25 µM ([2]; Well no.=636): 103%

Question: Which results are given for CN1CCc2cc(O)cc3c2[C@H]1Cc1ccc(O)c(O)c1-3 [R(-)-2,10,11-Trihydroxyaporphine hybrobromide]?
Answer: remaining activity at 3.75 µM ([1]; Well no.=588): 100%; remaining activity at 1.25 µM ([2]; Well no.=588): 104%

Question: COc1ccc(CCNC[C@@H](O)c2ccc(O)cc2)cc1OC [R(-)-Denopamine] was tested. Which remaining activity at 3.75 µM ([1]; Well no.=1498) did it give?
Answer: 100%

Question: And the remaining activity at 1.25 µM ([2]; Well no.=1498)?
Answer: 103%

Question: Which remaining activity at 3.75 µM ([1]; Well no.=398) does the source give for C=CCN1CCc2cccc3c2[C@H]1Cc1ccc(O)c(O)c1-3 [R(-)-N-Allylnorapomorphine hydrobromide] here?
Answer: 97.4%

Question: And the remaining activity at 1.25 µM ([2]; Well no.=398)?
Answer: 98.8%

Question: CCCN1CCc2cccc3c2[C@H]1Cc1ccc(O)c(O)c1-3 [R(-)-Propylnorapomorphine hydrochloride] was tested. Which remaining activity at 3.75 µM ([1]; Well no.=540) did it give?
Answer: 108%

Question: And the remaining activity at 1.25 µM ([2]; Well no.=540)?
Answer: 104%

Question: For COc1cc2c(cc1OC)[C@@H](c1ccccc1)CN(C)CC2 [R(-)-SCH-12679 maleate], which remaining activity at 3.75 µM ([1]; Well no.=1231) is on record?
Answer: 104%

Question: What about the remaining activity at 1.25 µM ([2]; Well no.=1231) of the same compound?
Answer: 101%

Question: [N-]=[N+]=N[C@]1(CO)O[C@@H](n2ccc(N)nc2=O)[C@H](O)[C@@H]1O [R-1479] was tested. Which remaining activity at 3.75 µM ([1]; Well no.=7756) did it give?
Answer: 99%

Question: What about the remaining activity at 1.25 µM ([2]; Well no.=7756) of the same compound?
Answer: 97.4%

Question: Which results are given for CCCN(CCC)[C@@H]1CCc2ccc(O)cc2C1 [R-(+)-7-Hydroxy-DPAT hydrobromide]?
Answer: remaining activity at 3.75 µM ([1]; Well no.=428): 96.9%; remaining activity at 1.25 µM ([2]; Well no.=428): 97.2%

Question: CCCN(CCC)[C@@H]1CCc2cccc(O)c2C1 [R-(+)-8-Hydroxy-DPAT hydrobromide] was tested. Which remaining activity at 3.75 µM ([1]; Well no.=762) did it give?
Answer: 88.8%

Question: What about the remaining activity at 1.25 µM ([2]; Well no.=762) of the same compound?
Answer: 92.2%

Question: What does the source list for CNCC[C@@H](Oc1ccc(C(F)(F)F)cc1)c1ccccc1 [R-(-)-Fluoxetine hydrochloride]?
Answer: remaining activity at 3.75 µM ([1]; Well no.=419): 92.4%; remaining activity at 1.25 µM ([2]; Well no.=419): 92.7%

Question: N[C@@H](Cc1ccccc1)C(=O)N1C/C(=C/c2ccc(Cl)c(Cl)c2)C(=O)/C(=C\c2ccc(Cl)c(Cl)c2)C1 [RA190] was tested. Which remaining activity at 3.75 µM ([1]; Well no.=8408) did it give?
Answer: 89.8%

Question: And the remaining activity at 1.25 µM ([2]; Well no.=8408)?
Answer: 89.3%

Question: Which remaining activity at 3.75 µM ([1]; Well no.=7809) does the source give for COc1ccc(OC)c(C2C(C#N)=C(N)Oc3n[nH]c(-c4ccc5ccccc5c4)c32)c1 (stereo not drawn) [RBC8] here?
Answer: 113%

Question: What about the remaining activity at 1.25 µM ([2]; Well no.=7809) of the same compound?
Answer: 105%

Question: How did the remaining activity at 3.75 µM ([1]; Well no.=1402) turn out when CC(C)Oc1cccnc1N(C)C1CCN(Cc2ccc(I)cc2)CC1 [RBI-257 maleate] was run?
Answer: 105%

Question: What about the remaining activity at 1.25 µM ([2]; Well no.=1402) of the same compound?
Answer: 103%

Question: Which results are given for CCCCCC(O)c1cccc(OCc2ccc3ccccc3n2)c1 (stereo not drawn) [REV 5901]?
Answer: remaining activity at 3.75 µM ([1]; Well no.=1158): 101%; remaining activity at 1.25 µM ([2]; Well no.=1158): 104%

Question: How did the remaining activity at 3.75 µM ([1]; Well no.=4520) turn out when CCCCCC(O)c1cccc(OCc2ccc3ccccc3n2)c1 (stereo not drawn) [REV-5901] was run?
Answer: 95.4%

Question: And the remaining activity at 1.25 µM ([2]; Well no.=4520)?
Answer: 92.4%

Question: What does the source list for O=C(O)C(Cc1c[nH]c2ccccc12)N1C(=O)c2ccccc2C1=O (stereo not drawn) [RG108]?
Answer: remaining activity at 3.75 µM ([1]; Well no.=4791): 104%; remaining activity at 3.75 µM ([1]; Well no.=8370): 85.1%; remaining activity at 1.25 µM ([2]; Well no.=4791): 103%; remaining activity at 1.25 µM ([2]; Well no.=8370): 88.9%

Question: CCOc1cc(C(C)(C)C)ccc1C1=N[C@@](C)(c2ccc(Cl)cc2)[C@@](C)(c2ccc(Cl)cc2)N1C(=O)N1CCN(CCCS(C)(=O)=O)CC1 [RG7112] was tested. Which remaining activity at 3.75 µM ([1]; Well no.=6676) did it give?
Answer: 94%

Question: What about the remaining activity at 1.25 µM ([2]; Well no.=6676) of the same compound?
Answer: 94.8%

Question: With O=C(NCCCCCCNC(=O)ON=C1CCCCC1)ON=C1CCCCC1 [RHC 80267] as the compound, how does the remaining activity at 3.75 µM ([1]; Well no.=5818) read?
Answer: 99.1%

Question: And the remaining activity at 1.25 µM ([2]; Well no.=5818)?
Answer: 96.6%

Question: What does the source list for CO[C@H]1/C=C/O[C@@]2(C)Oc3c(C)c(O)c4c(O)c(cc(O)c4c3C2=O)NC(=O)/C(C)=C\C=C\[C@H](C)[C@H](O)[C@@H](C)[C@@H](O)[C@@H](C)[C@H](OC(C)=O)[C@@H]1C [RIFAMYCIN SV]?
Answer: remaining activity at 3.75 µM ([1]; Well no.=1987): 97.9%; remaining activity at 1.25 µM ([2]; Well no.=1987): 105%

Question: Which remaining activity at 3.75 µM ([1]; Well no.=6932) does the source give for CC(C)(C)S(=O)(=O)c1cc2c(Nc3ccc4scnc4c3)ncnc2cc1OCCO [RIP2 kinase inhibitor 1] here?
Answer: 105%

Question: What about the remaining activity at 1.25 µM ([2]; Well no.=6932) of the same compound?
Answer: 102%

Question: Which remaining activity at 3.75 µM ([1]; Well no.=6210) does the source give for CCC(C)(C)C(=O)N(O)Cc1ccccc1 [RIPA-56] here?
Answer: 92.1%

Question: And the remaining activity at 1.25 µM ([2]; Well no.=6210)?
Answer: 90.8%

Question: What does the source list for CCn1cc(-c2ccc3c(c2)CCN3C(=O)Cc2cccc(OC(F)(F)F)c2)c2c(N)ncnc21 [RIPK1-IN-7]?
Answer: remaining activity at 3.75 µM ([1]; Well no.=6824): 94.4%; remaining activity at 1.25 µM ([2]; Well no.=6824): 94.8%

Question: What does the source list for OCc1ccc(-c2ccc(-c3ccc(CO)s3)o2)s1 [RITA (NSC 652287)]?
Answer: remaining activity at 3.75 µM ([1]; Well no.=4741): 108%; remaining activity at 1.25 µM ([2]; Well no.=4741): 103%

Question: Which results are given for COc1cc(C(N)=O)ccc1NC(=O)[C@@H]1N[C@@H](CC(C)(C)C)[C@@]2(C(=O)Nc3cc(Cl)ccc32)[C@H]1c1cccc(Cl)c1F [RO8994]?
Answer: remaining activity at 3.75 µM ([1]; Well no.=7108): 89.6%; remaining activity at 1.25 µM ([2]; Well no.=7108): 92.4%

Question: With [N-]=[N+]=N[C@]1(CO)O[C@@H](n2ccc(N)nc2=O)[C@@H](O)[C@@H]1O [RO-9187] as the compound, how does the remaining activity at 3.75 µM ([1]; Well no.=7762) read?
Answer: 101%

Question: What about the remaining activity at 1.25 µM ([2]; Well no.=7762) of the same compound?
Answer: 98.5%

Question: Which results are given for C[C@@H](N)[C@H]1CC[C@H](C(=O)Nc2ccncc2)CC1 [ROCK Inhibitor, Y-27632]?
Answer: remaining activity at 3.75 µM ([1]; Well no.=2452): 98.5%; remaining activity at 1.25 µM ([2]; Well no.=2452): 99.4%

Question: How did the remaining activity at 3.75 µM ([1]; Well no.=8632) turn out when O=C(CBr)N1CC([N+](=O)[O-])([N+](=O)[O-])C1 [RRx-001] was run?
Answer: 98.9%

Question: What about the remaining activity at 1.25 µM ([2]; Well no.=8632) of the same compound?
Answer: 105%

Question: Which results are given for O=C1Nc2ccccc2C2(CCN(CCc3ccc(C(F)(F)F)cc3)CC2)O1 [RS102895 (hydrochloride)]?
Answer: remaining activity at 3.75 µM ([1]; Well no.=8003): 93.3%; remaining activity at 3.75 µM ([1]; Well no.=8275): 104%; remaining activity at 1.25 µM ([2]; Well no.=8003): 98.5%; remaining activity at 1.25 µM ([2]; Well no.=8275): 106%

Question: With CC(C)c1cc(-c2ccc(F)c3ccccc23)nc(N)n1 [RS 127445] as the compound, how does the remaining activity at 3.75 µM ([1]; Well no.=8477) read?
Answer: 105%

Question: What about the remaining activity at 1.25 µM ([2]; Well no.=8477) of the same compound?
Answer: 107%

Question: Which remaining activity at 3.75 µM ([1]; Well no.=8391) does the source give for Cc1ccc2c(c1)C1(CCN(CCc3nc(-c4ccccc4)oc3C)CC1)OC(=O)N2 [RS 504393] here?
Answer: 95.2%

Question: And the remaining activity at 1.25 µM ([2]; Well no.=8391)?
Answer: 99.2%
